Measurements as given in the NIST ThermoML archive (doi:10.1016/j.fluid.2005.01.007).
± gives the expanded uncertainty stated by the source.

How the values were obtained:
[1] = Liquid; for mass density: 298.15 K, 101.33 kPa
[2] = refractive index (Na D-line) (dimensionless); details: 298.15 K; 101.33 kPa; Liquid; Standard Abbe refractometry

Row | SMILES | mass density [1] | vapor or sublimation pressure ([1]; 372.33 K) | refractive index [2] | vapor or sublimation pressure ([1]; 329.26 K) | vapor or sublimation pressure ([1]; 351.44 K)
1 | CC(C)CC(C)(C)C [2,2,4-trimethylpentane] | 687.72 ± 0.81 kg/m3 | 101.32 ± 0.55 kPa | 1.38887 ± 0.00072 |  | 
2 | CC(C)=O [acetone] | 785.47 ± 0.61 kg/m3 |  | 1.35597 ± 0.00072 | 101.32 ± 0.55 kPa | 
3 | CCO [ethanol] | 785.09 ± 0.62 kg/m3 |  | 1.35926 ± 0.00072 |  | 101.32 ± 0.55 kPa
